Reference: ChEMBL document CHEMBL3045441, “Microwave-assisted CAN-catalyzed solvent-free synthesis of N-allyl quinolone-based pyrano[4,3-b]chromene and benzopyrano[3,2-c]chromene derivatives and their antimicrobial activity” (2013)
≈ marks a conversion by molar mass, not a printed value.

How the values were obtained:
Format in all cases: functional
[1] = system: Candida albicans; assay: Antimicrobial activity against Candida albicans MTCC 227 assessed as growth inhibition after 48 hr by NCCLS broth microdilution method
[2] = system: Staphylococcus aureus; assay: Antimicrobial activity against Staphylococcus aureus MTCC 96 assessed as growth inhibition after 24 hr by NCCLS broth microdilution method; conditions: MTCC 96, 24 h
[3] = system: Aspergillus clavatus; assay: Antimicrobial activity against Aspergillus clavatus MTCC 1323 assessed as growth inhibition after 48 hr by NCCLS broth microdilution method
[4] = system: Aspergillus niger; assay: Antimicrobial activity against Aspergillus niger MTCC 282 assessed as growth inhibition after 48 hr by NCCLS broth microdilution method
[5] = system: Pseudomonas aeruginosa; assay: Antimicrobial activity against Pseudomonas aeruginosa MTCC 1688 assessed as growth inhibition after 24 hr by NCCLS broth microdilution method; conditions: MTCC 1688, 24 h
[6] = system: Streptococcus pyogenes; assay: Antimicrobial activity against Streptococcus pyogenes MTCC 442 assessed as growth inhibition after 24 hr by NCCLS broth microdilution method; conditions: MTCC 442, 24 h
[7] = system: Escherichia coli; assay: Antimicrobial activity against Escherichia coli MTCC 443 assessed as growth inhibition after 24 hr by NCCLS broth microdilution method; conditions: MTCC 443, 24 h

C=CCn1c(=O)c(C2C3=C(CC(C)(C)CC3=O)Oc3c2c(=O)oc2ccccc32)cc2cc(OC)ccc21 (stereo not drawn)
MIC ([1]; MTCC 227, 48 h): 500 µg/mL (≈ 981 µM)
MIC [2]: 125 µg/mL (≈ 245 µM)
MIC ([3]; MTCC 1323, 48 h): > 1000 µg/mL
MIC ([4]; MTCC 282, 48 h): > 1000 µg/mL
MIC [5]: 125 µg/mL (≈ 245 µM)
MIC [6]: 125 µg/mL (≈ 245 µM)
MIC [7]: 250 µg/mL (≈ 491 µM)

C=CCn1c(=O)c(C2C3=C(CC(C)(C)CC3=O)Oc3cc(C)oc(=O)c32)cc2ccccc21 (stereo not drawn)
MIC ([1]; MTCC 227, 48 h): 500 µg/mL (≈ 1130 µM)
MIC [2]: 500 µg/mL (≈ 1130 µM)
MIC ([3]; MTCC 1323, 48 h): 500 µg/mL (≈ 1130 µM)
MIC ([4]; MTCC 282, 48 h): 500 µg/mL (≈ 1130 µM)
MIC [5]: 62.5 µg/mL (≈ 141 µM)
MIC [6]: 250 µg/mL (≈ 564 µM)
MIC [7]: 100 µg/mL (≈ 225 µM)

NYSTATIN
MIC [1]: 100 µg/mL
MIC [3]: 100 µg/mL
MIC [4]: 100 µg/mL

CC1(C)S[C@@H]2[C@H](NC(=O)[C@H](N)c3ccccc3)C(=O)N2[C@H]1C(=O)O [AMPICILLIN]
MIC [2]: 250 µg/mL (≈ 715 µM)
MIC [6]: 100 µg/mL (≈ 286 µM)
MIC [7]: 100 µg/mL (≈ 286 µM)

COC1=CC(=O)C[C@@H](C)[C@]12Oc1c(Cl)c(OC)cc(OC)c1C2=O [GRISEOFULVIN]
MIC ([1]; MTCC 227, 48 h): 500 µg/mL (≈ 1420 µM)
MIC ([3]; MTCC 1323, 48 h): 100 µg/mL (≈ 283 µM)
MIC ([4]; MTCC 282, 48 h): 100 µg/mL (≈ 283 µM)

C=CCn1c(=O)c(C2C3=C(CC(C)(C)CC3=O)Oc3c2c(=O)oc2ccccc32)cc2cc(C)ccc21 (stereo not drawn)
MIC ([1]; MTCC 227, 48 h): 500 µg/mL (≈ 1010 µM)
MIC [2]: 125 µg/mL (≈ 253 µM)
MIC ([3]; MTCC 1323, 48 h): 500 µg/mL (≈ 1010 µM)
MIC ([4]; MTCC 282, 48 h): 500 µg/mL (≈ 1010 µM)
MIC [5]: 50 µg/mL (≈ 101 µM)
MIC [6]: 250 µg/mL (≈ 507 µM)
MIC [7]: 200 µg/mL (≈ 405 µM)

C=CCn1c(=O)c(C2C3=C(CC(C)(C)CC3=O)Oc3cc(C)oc(=O)c32)cc2cc(Cl)ccc21 (stereo not drawn)
MIC ([1]; MTCC 227, 48 h): 1000 µg/mL (≈ 2090 µM)
MIC [2]: 125 µg/mL (≈ 262 µM)
MIC ([3]; MTCC 1323, 48 h): > 1000 µg/mL
MIC ([4]; MTCC 282, 48 h): > 1000 µg/mL
MIC [5]: 500 µg/mL (≈ 1050 µM)
MIC [6]: 125 µg/mL (≈ 262 µM)
MIC [7]: 250 µg/mL (≈ 523 µM)

O=C(O)c1cn(C2CC2)c2cc(N3CCNCC3)c(F)cc2c1=O [CIPROFLOXACIN]
MIC [2]: 50 µg/mL (≈ 151 µM)
MIC [6]: 50 µg/mL (≈ 151 µM)
MIC [7]: 25 µg/mL (≈ 75.4 µM)

C=CCn1c(=O)c(C2C3=C(CCCC3=O)Oc3cc(C)oc(=O)c32)cc2cc(Cl)ccc21 (stereo not drawn)
MIC ([1]; MTCC 227, 48 h): 1000 µg/mL (≈ 2220 µM)
MIC [2]: 100 µg/mL (≈ 222 µM)
MIC ([3]; MTCC 1323, 48 h): 1000 µg/mL (≈ 2220 µM)
MIC ([4]; MTCC 282, 48 h): 500 µg/mL (≈ 1110 µM)
MIC [5]: 500 µg/mL (≈ 1110 µM)
MIC [6]: 100 µg/mL (≈ 222 µM)
MIC [7]: 500 µg/mL (≈ 1110 µM)

O=C(N[C@H](CO)[C@H](O)c1ccc([N+](=O)[O-])cc1)C(Cl)Cl [CHLORAMPHENICOL]
MIC [2]: 50 µg/mL (≈ 155 µM)
MIC [5]: 50 µg/mL (≈ 155 µM)
MIC [6]: 50 µg/mL (≈ 155 µM)
MIC [7]: 50 µg/mL (≈ 155 µM)

C=CCn1c(=O)c(C2C3=C(CCCC3=O)Oc3cc(C)oc(=O)c32)cc2ccccc21 (stereo not drawn)
MIC ([1]; MTCC 227, 48 h): 500 µg/mL (≈ 1200 µM)
MIC [2]: 250 µg/mL (≈ 602 µM)
MIC ([3]; MTCC 1323, 48 h): 200 µg/mL (≈ 481 µM)
MIC ([4]; MTCC 282, 48 h): 200 µg/mL (≈ 481 µM)
MIC [5]: 200 µg/mL (≈ 481 µM)
MIC [6]: 250 µg/mL (≈ 602 µM)
MIC [7]: 125 µg/mL (≈ 301 µM)

C=CCn1c(=O)c(C2C3=C(CC(C)(C)CC3=O)Oc3c2c(=O)oc2ccccc32)cc2cc(Cl)ccc21 (stereo not drawn)
MIC ([1]; MTCC 227, 48 h): 1000 µg/mL (≈ 1950 µM)
MIC [2]: 62.5 µg/mL (≈ 122 µM)
MIC ([3]; MTCC 1323, 48 h): 1000 µg/mL (≈ 1950 µM)
MIC ([4]; MTCC 282, 48 h): 1000 µg/mL (≈ 1950 µM)
MIC [5]: 100 µg/mL (≈ 195 µM)
MIC [6]: 100 µg/mL (≈ 195 µM)
MIC [7]: 100 µg/mL (≈ 195 µM)

C=CCn1c(=O)c(C2C3=C(CCCC3=O)Oc3cc(C)oc(=O)c32)cc2cc(OC)ccc21 (stereo not drawn)
MIC ([1]; MTCC 227, 48 h): 500 µg/mL (≈ 1120 µM)
MIC [2]: 200 µg/mL (≈ 449 µM)
MIC ([3]; MTCC 1323, 48 h): 1000 µg/mL (≈ 2240 µM)
MIC ([4]; MTCC 282, 48 h): 1000 µg/mL (≈ 2240 µM)
MIC [5]: 250 µg/mL (≈ 561 µM)
MIC [6]: 200 µg/mL (≈ 449 µM)
MIC [7]: 125 µg/mL (≈ 281 µM)

C=CCn1c(=O)c(C2C3=C(CCCC3=O)Oc3c2c(=O)oc2ccccc32)cc2cc(OC)ccc21 (stereo not drawn)
MIC ([1]; MTCC 227, 48 h): 500 µg/mL (≈ 1040 µM)
MIC [2]: 62.5 µg/mL (≈ 130 µM)
MIC ([3]; MTCC 1323, 48 h): 1000 µg/mL (≈ 2080 µM)
MIC ([4]; MTCC 282, 48 h): 1000 µg/mL (≈ 2080 µM)
MIC [5]: 62.5 µg/mL (≈ 130 µM)
MIC [6]: 500 µg/mL (≈ 1040 µM)
MIC [7]: 100 µg/mL (≈ 208 µM)

C=CCn1c(=O)c(C2C3=C(CCCC3=O)Oc3c2c(=O)oc2ccccc32)cc2cc(Cl)ccc21 (stereo not drawn)
MIC ([1]; MTCC 227, 48 h): 1000 µg/mL (≈ 2060 µM)
MIC [2]: 125 µg/mL (≈ 257 µM)
MIC ([3]; MTCC 1323, 48 h): 1000 µg/mL (≈ 2060 µM)
MIC ([4]; MTCC 282, 48 h): 1000 µg/mL (≈ 2060 µM)
MIC [5]: 100 µg/mL (≈ 206 µM)
MIC [6]: 125 µg/mL (≈ 257 µM)
MIC [7]: 200 µg/mL (≈ 412 µM)

C=CCn1c(=O)c(C2C3=C(CC(C)(C)CC3=O)Oc3c2c(=O)oc2ccccc32)cc2ccccc21 (stereo not drawn)
MIC ([1]; MTCC 227, 48 h): 250 µg/mL (≈ 521 µM)
MIC [2]: 250 µg/mL (≈ 521 µM)
MIC ([3]; MTCC 1323, 48 h): 1000 µg/mL (≈ 2090 µM)
MIC ([4]; MTCC 282, 48 h): 1000 µg/mL (≈ 2090 µM)
MIC [5]: 250 µg/mL (≈ 521 µM)
MIC [6]: 500 µg/mL (≈ 1040 µM)
MIC [7]: 500 µg/mL (≈ 1040 µM)

C=CCn1c(=O)c(C2C3=C(CCCC3=O)Oc3cc(C)oc(=O)c32)cc2cc(C)ccc21 (stereo not drawn)
MIC ([1]; MTCC 227, 48 h): 1000 µg/mL (≈ 2330 µM)
MIC [2]: 500 µg/mL (≈ 1160 µM)
MIC ([3]; MTCC 1323, 48 h): 1000 µg/mL (≈ 2330 µM)
MIC ([4]; MTCC 282, 48 h): 500 µg/mL (≈ 1160 µM)
MIC [5]: 250 µg/mL (≈ 582 µM)
MIC [6]: 500 µg/mL (≈ 1160 µM)
MIC [7]: 125 µg/mL (≈ 291 µM)

C=CCn1c(=O)c(C2C3=C(CCCC3=O)Oc3c2c(=O)oc2ccccc32)cc2cc(C)ccc21 (stereo not drawn)
MIC ([1]; MTCC 227, 48 h): 250 µg/mL (≈ 537 µM)
MIC [2]: 250 µg/mL (≈ 537 µM)
MIC ([3]; MTCC 1323, 48 h): 500 µg/mL (≈ 1070 µM)
MIC ([4]; MTCC 282, 48 h): 500 µg/mL (≈ 1070 µM)
MIC [5]: 100 µg/mL (≈ 215 µM)
MIC [6]: 250 µg/mL (≈ 537 µM)
MIC [7]: 20 µg/mL (≈ 43 µM)

C=CCn1c(=O)c(C2C3=C(CC(C)(C)CC3=O)Oc3cc(C)oc(=O)c32)cc2cc(OC)ccc21 (stereo not drawn)
MIC ([1]; MTCC 227, 48 h): 500 µg/mL (≈ 1060 µM)
MIC [2]: 250 µg/mL (≈ 528 µM)
MIC ([3]; MTCC 1323, 48 h): 1000 µg/mL (≈ 2110 µM)
MIC ([4]; MTCC 282, 48 h): 1000 µg/mL (≈ 2110 µM)
MIC [5]: 500 µg/mL (≈ 1060 µM)
MIC [6]: 250 µg/mL (≈ 528 µM)
MIC [7]: 500 µg/mL (≈ 1060 µM)

C=CCn1c(=O)c(C2C3=C(CC(C)(C)CC3=O)Oc3cc(C)oc(=O)c32)cc2cc(C)ccc21 (stereo not drawn)
MIC ([1]; MTCC 227, 48 h): 1000 µg/mL (≈ 2190 µM)
MIC [2]: 250 µg/mL (≈ 546 µM)
MIC ([3]; MTCC 1323, 48 h): 250 µg/mL (≈ 546 µM)
MIC ([4]; MTCC 282, 48 h): 250 µg/mL (≈ 546 µM)
MIC [5]: 125 µg/mL (≈ 273 µM)
MIC [6]: 125 µg/mL (≈ 273 µM)
MIC [7]: 500 µg/mL (≈ 1090 µM)

C=CCn1c(=O)c(C2C3=C(CCCC3=O)Oc3c2c(=O)oc2ccccc32)cc2ccccc21 (stereo not drawn)
MIC ([1]; MTCC 227, 48 h): 500 µg/mL (≈ 1110 µM)
MIC [2]: 200 µg/mL (≈ 443 µM)
MIC ([3]; MTCC 1323, 48 h): > 1000 µg/mL
MIC ([4]; MTCC 282, 48 h): > 1000 µg/mL
MIC [5]: 100 µg/mL (≈ 221 µM)
MIC [6]: 200 µg/mL (≈ 443 µM)
MIC [7]: 62.5 µg/mL (≈ 138 µM)
